Laboratory results taken from patent publication US20080009546A1 (Chevron U.S.A. Inc., priority 2005, published 2008).
Where two headings read alike, the source gives them in different places.

What was measured:
[1] = Dissolving compounds to make 10 mM stock solution; type: physicochemical; conditions: deionized water or assay friendly solvents, hot water
Method: Following assay establishment, the test compounds were tested for binding affinities. The concentrations selected for the experiments were chosen according to what was found for memantine in our assay. The first task was to dissolve the compounds and make up the 10 mM stock solution for further experiments. Those compounds that were made into salt format were easy to dissolve in deionized water, but the other compounds were difficult to bring into solution. Several “assay friendly” solvents have been tried, such as molecusol, acetic acid and propylene glycol followed by putting the vial into hot water.

[2] = system: primary neurons from rat cerebral cortex; assay: NMDA-induced LDH release assay in primary cortical neurons (neuroprotection); type: cell-based; conditions: Rattus norvegicus, Primary neuron; two experiments; 300 uM NMDA + 50 μM glycine 15 minutes, LDH after 24 hours; read-out: average EC50 (±SD), NMDA-induced LDH release
Method: The neuroprotective properties of drugs have been studied in vitro, using neurons cultured from cortex, cerebellum or retina. […] Neurotoxicity is determined in this assay by measuring lactate dehydrogenase (LDH), a method which is simple, accurate and reproducible. We conducted pilot studies to test if poly-lysine-coated plates would be suitable as a matrix upon which to plate fetal neurons, compared to astrocyte-coated plates. We also compared the use of growth medium to neurobasal medium supplemented with B27 in the pilot experiments. The concentrations of NMDA (300-500 μM), glycine (10-50 μM), and memantine (10-100 μM) were varied, and optimum concentrations and times determined from these pilot studies were then chosen for the main study. The assay is described below.
Fetal rat neocortical cells were cultured on a mouse astroglial feeder layer. To obtain mouse astroglial cells for the feeder layer, cortices were harvested from 1-day old Swiss Webster mice (Charles River, Hollister, Calif.) according to the procedure described by Rose et al (1993). After dissecting cortices in ice-cold dissecting medium, they were minced and incubated in 0.09% trypsin in media stock for 1 hr, followed by resuspension in growth medium containing 10% equine serum and 10% fetal bovine serum. A single-cell suspension was obtained by triturating through fire-bored glass pipettes, and the resulting cell suspension was plated at a density of 0.5-0.75 hemispheres/24-well plate/9.6 ml, with 0.4 ml/well. Plates were incubated in a humidified incubator at 37° C., 5% CO2. Astroglial cells become confluent in about 2-3 weeks, at which time these cultures are ready to be used as feeder layers upon which neuronal cultures can be plated. Neuronal cells were obtained from gestational Sprague-Dawley rats E16-E18, using a similar dissection procedure. Rat embryos were dissected to obtain cortical tissue, which was plated as a single-cell suspension at a density of 1.4 hemispheres/24-well plate/9.6 ml, with 0.4 ml/well. These cells were plated on the existing astroglial feeder layer, and were incubated at 37° C., 5% CO2. After 5 days in culture, cytosine arabinoside (10 μM) was added to the wells to inhibit glial cell proliferation, and after 24 hours, the medium was replaced with fresh growth medium. Cells were fed with fresh growth medium every 2 days, until the experiments were performed. For coating plates with poly-lysine, we used poly-d-lysine hydrobromide (Sigma Cat # P7280) at a concentration of 0.1 mg/ml to coat each well using a minimum volume of 0.2 ml/well. After coating for 5 minutes, the solution was aspirated and wells were rinsed thoroughly with sterile tissue culture grade water. After drying for 2 hours, plates were ready for use. Neuronal cultures were plated onto poly-lysine-coated plates at the same density as above. For the pilot study, some of the cultures were fed with 1:1 ratio of growth medium: neurobasal medium (GIBCO)+B-27 supplement (2%), while the rest of the cultures were fed with growth medium alone (Losi et al., 2006). For the main study, we used astroglial feeder layers to plate the neuronal cultures, and used a mix (1:1) of growth medium with neurobasal medium+B-27 supplement for feeding the cultures.
After 11-14 days in culture, neuronal cells were confluent and experiments were performed. Cells were washed twice using sterile Locke's buffer (154 mM NaCl, 5.6 mM KCl, 2.3 mM CaCl2, 3.6 mM NaHCO3, 5.5 mM D-glucose, 5 mM HEPES, pH 7.4), and then exposed to the various treatment compounds. […] After 15 minutes, cultures were washed twice and incubated overnight in media stock. After 24 hours, supernatants and lysates were collected to measure LDH activity. LDH activity was measured by the reduction of NAD, which was utilized in the stoichiometric conversion of a tetrazolium dye using a kit (Sigma TOX-7). Supernatants were removed from the wells and centrifuged before LDH measurements. The adherent cells were lysed to obtain total LDH. […]

C57/BL6 male mice [3] = assay: Rotarod test (balance and coordination, side effects)
Method: The side effects of the compounds was primarily evaluated using the rotarod test, which mainly assesses the balancing and coordination of mice. The comparisons were made on fall time of the mice between the first measure (pre-treatment) and second measure taken 20 min after the drug/vehicle injection in the same group (paired t-test). […] Comparisons of the rotatod fall times after drug/vehicle dosing were made between drug treatment and control groups (unpaired t-test).

NMDA receptor = assay: Whole-cell voltage-clamp recordings of NMDA evoked currents in hypocretin neurons (hypothalamic slices); type: cell-based, mouse; conditions: for inhibition of the peak amplitude of NMDA evoked currents: bath application, -60 mV, mean±SEM
C57/BL6 male mice [4] = conditions: for # of deaths / # of extensions: 6 mice
C57/BL6 male mice [5] = assay: Pentylenetetrazol (PTZ)-induced seizure/death model; type: in vivo, mouse; conditions: for # mice with L3 seizure / # mice with L4 seizure / # of deaths within 30 min: 6 mice; for # of deaths within 30 min / PTZ-induced death: PTZ 100 mg/kg; for Time to death: mice that died within 30 min; for PTZ-induced death: 30 min observation
Method: Although the protection against death is the key endpoint, other effects of the compounds on PTZ-induced seizures were also assessed using multiple parameters. For the mice that did die within the 30 minute observation window, the time of death was also compared. […] The seizure occurrence rate, onset time and number of level 3 (L3) seizure (repetitive seizures but the animal can still stand) and level 4 (L4) seizure (repetitive seizures and the animal loses righting) are also analyzed. The MDT compound (30 mg/kg) treated groups show a certain degree of improvement compared to control. No data from MK801 or memantine were included because the seizures occurring under these treatments are totally different from the control or MDT injected groups due to side effects (“high jumping”).

SMILES: O=C(O)C12CC3C4CC5(C(=O)O)CC3C(C1)C(C5)C4C2 [MDT-20]
- dissolution for 10 mM stock solution [1]: did not go into solution, or came out with time

SMILES: CC12CC3CC4C1CC1(N)CC2C(C3)C4(C)C1 [MDT-23, 4-amino-1,6-dimethyl-diamantane]
- EC50 [2]: 11.1 ± 9.3 µM
- Fall Time (C57/BL6 male mice [3]; after, 20 min after 10 mg/kg i.p.): 42.98 ± 2.82 min
- Fall Time (C57/BL6 male mice [3]; after, 20 min after 30 mg/kg i.p.): 31.37 ± 3.83 min
- Fall Time (C57/BL6 male mice [3]; before (pre-treatment), 10 mg/kg group): 28.63 ± 3.10 min
- Fall Time (C57/BL6 male mice [3]; before (pre-treatment), 30 mg/kg group): 39.77 ± 6.14 min
- rotarod fall time, pre-treatment vs 20 min after injection (C57/BL6 male mice [3]; high dose 30 mg/kg i.p., paired t-test): loss of performance
- rotarod performance after dosing vs. control (C57/BL6 male mice [3]; high dose 30 mg/kg i.p., unpaired t-test): statistically significant decreases in rotarod performance
- inhibition of the peak amplitude of NMDA evoked currents (NMDA receptor; 10 μM): 11.6±4.3%
- inhibition of the peak amplitude of NMDA evoked currents (NMDA receptor; 100 μM): 22.9±9.3%
- reversibility of inhibition of NMDA evoked currents upon washout (NMDA receptor; washout of the compound): not reversible
- Extension rate (C57/BL6 male mice [4]; 10 mg/kg i.p.): 1.00
- Mortality rate (C57/BL6 male mice [4]; 10 mg/kg i.p.): 0.67
- # of deaths (C57/BL6 male mice [4]; 10 mg/kg i.p.): 4
- # of extensions (C57/BL6 male mice [4]; 10 mg/kg i.p.): 6
- Extension rate (C57/BL6 male mice [4]; 30 mg/kg i.p.): 1.00
- Mortality rate (C57/BL6 male mice [4]; 30 mg/kg i.p.): 0.17
- # of deaths (C57/BL6 male mice [4]; 30 mg/kg i.p.): 1
- # of extensions (C57/BL6 male mice [4]; 30 mg/kg i.p.): 6
- MES-induced death (C57/BL6 male mice [4]; 10 and 30 mg/kg i.p., mice): dose dependent reduction in MES-induced death
- # L3 per mouse (C57/BL6 male mice [5]; 10 mg/kg i.p.): 4.67 ± 1.65
- # L4 per mouse (C57/BL6 male mice [5]; 10 mg/kg i.p.): 1.67 ± 0.49
- L3 onset time (C57/BL6 male mice [5]; 10 mg/kg i.p.): 3.00 ± 0.20 min
- L3 seizure rate (C57/BL6 male mice [5]; 10 mg/kg i.p.): 0.50
- L4 onset time (C57/BL6 male mice [5]; 10 mg/kg i.p.): 13.80 ± 4.40 min
- L4 seizure rate (C57/BL6 male mice [5]; 10 mg/kg i.p.): 1.00
- Mortality rate (C57/BL6 male mice [5]; 10 mg/kg i.p.): 0.50
- # mice with L3 seizure (C57/BL6 male mice [5]; 10 mg/kg i.p.): 3
- # mice with L4 seizure (C57/BL6 male mice [5]; 10 mg/kg i.p.): 6
- # of deaths within 30 min (C57/BL6 male mice [5]; 10 mg/kg i.p.): 3
- Time to death (C57/BL6 male mice [5]; 10 mg/kg i.p.): 14.00 ± 6.60 min
- # L3 per mouse (C57/BL6 male mice [5]; 30 mg/kg i.p.): 3.83 ± 2.44
- # L4 per mouse (C57/BL6 male mice [5]; 30 mg/kg i.p.): 1.00 ± 0.0
- L3 onset time (C57/BL6 male mice [5]; 30 mg/kg i.p.): 5.00 ± 1.90 min
- L3 seizure rate (C57/BL6 male mice [5]; 30 mg/kg i.p.): 1.00
- L4 onset time (C57/BL6 male mice [5]; 30 mg/kg i.p.): 19.80 ± 4.20 min
- L4 seizure rate (C57/BL6 male mice [5]; 30 mg/kg i.p.): 1.00
- Mortality rate (C57/BL6 male mice [5]; 30 mg/kg i.p.): 1.00
- average time of death (C57/BL6 male mice [5]; 30 mg/kg i.p., mice that died within 30 minute window): 22 ± 2.9 min
- # mice with L3 seizure (C57/BL6 male mice [5]; 30 mg/kg i.p.): 6
- # mice with L4 seizure (C57/BL6 male mice [5]; 30 mg/kg i.p.): 6
- # of deaths within 30 min (C57/BL6 male mice [5]; 30 mg/kg i.p.): 6
- Time to death (C57/BL6 male mice [5]; 30 mg/kg i.p.): 22.00 ± 2.90 min
- PTZ-induced death (C57/BL6 male mice [5]; 10 and 30 mg/kg i.p.): a certain reduction in PTZ-induced death
- PTZ-induced death (C57/BL6 male mice [5]; high dose 30 mg/kg i.p.): died within 30 minutes
